Results as given in patent US12220411B1, “Application of PTGDS inhibitor in preparation of drug for treating cataracts” (THE EYE HOSPITAL OR WENZHOU MEDICAL UNIVERSITY, priority 2023, dated 2025).

Legend:
[1] = tested on: lens epithelial cells; assay: ROS fluorescence staining after addition of PTGDS or PGD2; assay type: cell-based, human
[2] = tested on: lens epithelial cells; assay: MDA content measurement (oxidative stress injury); assay type: cell-based, human
Protocol: MDA is an important index of oxidative stress, and measurement on the content of the MDA reflects a degree of an oxidative stress injury. After addition of different concentrations of PTGDS (FIG. 10A) and PGD2 (FIG. 10B), values of MDA were measured.

[3] = tested on: HLEC-B3 cell line; assay: CCK8 cell activity with AT-56 added; assay type: cell-based, human
Protocol: AT-56 was added to the cell line.

[4] = tested on: lens epithelial cells; assay: ROS fluorescence staining in H2O2 epithelial cell oxidation model; assay type: cell-based, human; conditions: 200 μM H2O2 and 10 µM AT-56 (FIG. 9)
[5] = tested on: lens epithelial cells; assay: Apoptosis of lens epithelial cells cultured with H2O2; assay type: cell-based, human; conditions: 10 μM AT-56 added to 200 μM H2O2 (FIG. 11)
From the text: If the lens epithelial cells suffer from the oxidative stress injury, excessive ROS may accumulate in the cells, which can cause apoptosis until generation of cataracts.

[6] = tested on: rat lens; assay: In vitro oxidative opacity model for a rat lens (lens organ culture)

CCCCC[C@H](O)/C=C/[C@H]1C(=O)C[C@H](O)[C@@H]1C/C=C\CCCC(=O)O [PGD2, prostaglandin D2]
levels of ROS produced by the lens epithelial cells ([1]; PGD2 0.1, 0.4, 0.7, 1.0 nM versus DMSO (FIG. 8)): increased, and were concentration-dependent | content of MDA ([2]; different concentrations of PGD2 (FIG. 10B)): increased with the increase of the concentration

C1=Cc2ccccc2C(=C2CCN(CCCCc3nn[nH]n3)CC2)c2ccccc21 [AT-56, 4-dibenzo[a,d]cyclohepten-5-ylidene-1-[4-(2H-tetrazol-5-yl)-butyl]-piperidine]
cell activity (CCK8) ([3]; 7 μM AT-56, versus DMSO): higher than that with the addition of DMSO | cell activity (CCK8) ([3]; 10 μM AT-56, versus DMSO): higher than that with the addition of DMSO | ROS production in H2O2 epithelial cell oxidation model [4]: inhibit lens epithelial cells from producing ROS | production of the MDA ([2]; AT-56 added to 200 μM H2O2 (FIG. 10C)): effectively reduce production of the MDA | apoptosis of lens epithelial cells [5]: effectively reduce apoptosis | progression of the cataracts (lens opacity) ([6]; 200 μM H2O2 + 7 or 10 μM AT-56 for 12 h (FIGS. 12A-D)): alleviated progression of the cataracts | degree of the cataracts (lens opacity) ([6]; 200 μM H2O2 for 12 h, then 7 or 10 μM AT-56 for 24 h (FIGS. 12E-G)): effectively reduce the degree of the cataracts

B1: PTGDS: prostaglandin H2 (PGH2) D-isomerase protein added to lens epithelial cells at 100-1000 pg/mL (protein, UniProt P41222 23-190, looked up)
Prostaglandin-H2 D-isomerase: APEAQVSVQPNFQQDKFLGRWFSAGLASNSSWLREKKAALSMCKSVVAPATDGGLNLTSTFLRKNQCETRTMLLQPAGSLGSYSYRSPHWGSTYSVSVVETDYDQYALLYSQGSKGPGEDFRMATLYSRTQTPRAELKEKFTAFCKAQGFTEDTIVFLPQTDKCMTEQ
levels of ROS produced by the lens epithelial cells ([1]; PTGDS 100, 400, 700, 1000 pg/mL versus DMSO control (FIG. 7)): increased, and were concentration-dependent | content of MDA ([2]; different concentrations of PTGDS (FIG. 10A)): increased with the increase of the concentration
